Earlier results in patent US20160158274A1, “COMPOSITION FOR MUCOUS DISPERSION OR HYDRATION, CONTAINING POLY-r-[sequence] ACID” (BIOLEADERS CORPORATION, priority 2013, published 2016).

System: mucin
Conditions: mucin in cystic fibrosis

## O=C(O)CN(CCN(CC(=O)O)CC(=O)O)CC(=O)O [EDTA]
  dispersion of aggregated mucin: assist in dispersion of mucin
